Like-named read-outs stand apart in the source and are kept apart here.
Assays:
[1] = 26 IPF patients; oral co-administration; cited from earlier work
[2] = Drug concentration in rat plasma and lungs after tracheal nebulization and oral gavage (Example 2); type: in vivo, rats; details: for Cmax / AUC(0-t): plasma; for AUC(0-t): read-out: Plasma AUC0-t
Description: As shown in Example 1, after inhalation (such as tracheal nebulization) administration of 1.6 mg/kg EGCG and oral gavage administration of 60 mg/kg EGCG, the AUC0-t in rat plasma were similar. Based on this, this example investigates the changes in drug concentration in rat plasma and lungs over time after a single lower dose of tracheal nebulization (0.8 mg/kg) compared to oral gavage (60 mg/kg) of EGCG. Both the tracheal nebulization and oral gavage groups consist of 5 rats each.
2.1 Blood Sampling Method: Blood was taken via femoral artery. Samples were taken at 30 minutes, 2 hours, 4 hours, and 6 hours post-administration (4 sampling points). After blood collection, 0.9 wt% physiological saline was used to lavage the lungs twice, then the entire lung was removed, dried with filter paper, and stored at -20°C until further analysis.
2.2 Plasma Sample Processing Method: 1 mL of plasma was mixed with 3 mL of ethyl acetate solution, vortexed, centrifuged, and the supernatant was evaporated to dryness. The residue was reconstituted with a reconstitution solution, vortexed, and 100 µL was used for analysis of plasma drug concentration.
2.3 Lung Tissue Sample Processing Method: Lung tissue samples were weighed, and 3 times the volume of physiological saline (w:v) was added to homogenize. 1 mL of the homogenate was mixed with 3 mL of ethyl acetate solution, vortexed, centrifuged, and the supernatant was evaporated to dryness. The residue was reconstituted with a reconstitution solution, vortexed, and 100 µL was used for analysis of lung drug concentration.

[3] = system: TGFβ receptor 1 and 2 (TGFβR1/2) kinases; details: cited from earlier work
[4] = target: T1, lysyl oxidase-like protein-2 (LOXL2) (Homo sapiens, UniProt Q9Y4K0); details: cited from earlier work
T1 sequence (Q9Y4K0 26-774): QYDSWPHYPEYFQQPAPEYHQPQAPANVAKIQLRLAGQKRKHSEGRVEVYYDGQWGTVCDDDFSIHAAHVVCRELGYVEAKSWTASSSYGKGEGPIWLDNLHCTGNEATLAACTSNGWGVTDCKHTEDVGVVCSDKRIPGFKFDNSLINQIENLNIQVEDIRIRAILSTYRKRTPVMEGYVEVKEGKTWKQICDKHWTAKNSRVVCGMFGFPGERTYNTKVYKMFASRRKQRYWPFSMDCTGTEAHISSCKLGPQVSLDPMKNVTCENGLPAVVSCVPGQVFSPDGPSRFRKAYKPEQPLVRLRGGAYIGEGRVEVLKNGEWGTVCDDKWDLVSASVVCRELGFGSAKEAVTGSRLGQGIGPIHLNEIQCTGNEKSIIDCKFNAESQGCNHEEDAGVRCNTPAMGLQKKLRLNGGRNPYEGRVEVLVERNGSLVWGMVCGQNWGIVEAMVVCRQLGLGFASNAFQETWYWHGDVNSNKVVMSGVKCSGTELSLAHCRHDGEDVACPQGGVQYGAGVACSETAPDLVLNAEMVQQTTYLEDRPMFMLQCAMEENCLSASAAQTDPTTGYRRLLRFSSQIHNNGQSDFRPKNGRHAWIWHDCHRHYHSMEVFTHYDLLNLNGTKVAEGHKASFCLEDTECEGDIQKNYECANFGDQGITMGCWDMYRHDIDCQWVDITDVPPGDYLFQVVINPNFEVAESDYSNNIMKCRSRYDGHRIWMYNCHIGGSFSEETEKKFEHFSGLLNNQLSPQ

[5] = Single-dose escalation study of nebulized inhalation solution in healthy volunteers, safety and pharmacokinetics (Example 7); type: in vivo; details: for subjects with local symptoms in the oropharynx and respiratory tract: nebulized inhalation solution, single dose
Description: A randomized, double-blind, placebo-controlled clinical study was conducted with 22 healthy volunteers to evaluate the safety and tolerability of single-dose inhalation of EGCG nebulized solution, as well as pharmacokinetic characteristics, compared to placebo nebulized solution and oral EGCG capsules.
Test group: EGCG nebulized inhalation solution (the EGCG nebulized solution containing EDTA as described in Example 6), with an initial concentration of 10mg/mL, diluted to different doses before administration.
Oral control group: EGCG capsules, each weighing 150mg, with EGCG content approximately 94% of the total weight.
Refer to Table 6 below. The oral control group was randomly assigned 4 volunteers to receive 600mg of EGCG capsules (4 capsules, approximately 564mg of EGCG).
The EGCG nebulized inhalation treatment included 3 groups: • 1. 3mg dose group: 1mL of the starting drug solution was diluted to 1mg/mL, and 3mL was administered via the nebulizer. • 2. 10mg dose group: 1mL of the starting drug solution was diluted to 3.33mg/mL, and 3mL was administered via the nebulizer. • 3. 30mg dose group: The starting drug solution was not diluted, and 3mL was directly administered via the nebulizer.
Each nebulized inhalation dose group was randomly assigned 6 volunteers, starting with the lowest dose. In each group, 2 volunteers were designated as sentinels (1:1 randomization, 1 in the EGCG nebulized inhalation group and 1 in the placebo group), observed for ≥24 hours, and the study investigator performed a safety assessment. After permission from the investigator, the remaining 4 volunteers in each group received their assigned treatment (3:1 randomization, 3 in the EGCG nebulized inhalation group and 1 in the placebo group). Table 6: Group Information for Oral Control and EGCG Nebulized Inhalation Administration Groups.
Blood samples were collected from the subjects at 13 time points: pre-dose (within 1 hour before administration), and post-dose at 15 minutes, 30 minutes, 1 hour, 1.5 hours, 2 hours, 3 hours, 4 hours, 6 hours, 8 hours, 10 hours, 12 hours, and 24 hours. A total of 4mL of blood was collected at each time point, and plasma was extracted for pharmacokinetic (PK) testing, backup, and metabolite identification.
Adverse event (AE) monitoring; physical examination; vital signs (body temperature, blood pressure, pulse, respiration), blood oxygen saturation; heart function; lung function.

[6] = inhaled, tracheal nebulization (inh.0.8mg/kg)
[7] = tracheal nebulization (inh.0.8mg/kg)
[8] = human plasma, after inhalation compared to oral administration

O=C(O[C@@H]1Cc2c(O)cc(O)cc2O[C@@H]1c1cc(O)c(O)c(O)c1)c1cc(O)c(O)c(O)c1 [EGCG, (-)-Epigallocatechin gallate]
reduction of the plasma exposure of Nintedanib on co-administration [1]: about 21%
Kp ([2]; lung and plasma, inhaled, after inhalation 0.8 mg/kg, read-out: drug concentration in the lungs relative to that in plasma (higher)): 100
Lung AUC0-t ([2]; oral gavage (po. 60mg/kg)): 115 ng·h/mL
Lung Cmax ([2]; oral gavage (po. 60mg/kg)): 34.5 ng/mL
Cmax [2, 6]: 153 ng/mL
AUC(0-t) [2, 6]: 292 ng·h/mL
Cmax ([2]; oral gavage (po. 60mg/kg)): 46 ng/mL
AUC(0-t) ([2]; oral gavage (po. 60mg/kg)): 136 ng·h/mL
Lung AUC0-t [2, 7]: 30891 ng·h/mL
Lung Cmax [2, 7]: 12720 ng/mL
inhibition of TGFβR1/2 kinases [3]: effectively inhibit
inhibition of LOXL2 [4]: effectively inhibit
overall tolerability ([5]; after nebulized inhalation 3mg/10mg/30mg): overall tolerability was good
physical examination, vital signs, heart function, and lung function ([5]; all subjects (nebulized 3mg/10mg/30mg, oral capsules 600mg)): No significant abnormalities
inhalation Cmax relative to the oral Cmax ([5]; human plasma, 10mg nebulized dose group vs oral capsules 600mg): about 1/227
Cmax level [5, 8]: lower
time to reach peak plasma concentration (Tmax) [5, 8]: later
subjects with local symptoms in the oropharynx and respiratory tract ([5]; 3mg dose group): no subjects
subjects with local symptoms in the oropharynx and respiratory tract ([5]; 10mg dose group, mild): 1 out of 4
subjects with local symptoms in the oropharynx and respiratory tract ([5]; 30mg dose group, mild): 2 out of 4

— patent EP4623908A1, “USE OF (-)-EPIGALLOCATECHIN GALLATE COMPOUND” (CF Pharmtech, Inc., priority 2022, dated 2024)
